Measured values as given in PubChem BioAssay (NCI).
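Assay format: 96-well plates, 48-hour exposure. Here, GI50 denotes the concentration required for 50% inhibition of growth. TGI: total growth inhibition.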

Key:
Assay in all cases: growth of human tumour cells (NCI), 48 h
NCI/ADR-RES ovarian = system: NCI/ADR-RES ovarian
NCI-H226 lung = system: NCI-H226 lung
MDA-MB-468 breast = system: MDA-MB-468 breast
BT-549 breast = system: BT-549 breast
IGROV1 ovarian = system: IGROV1 ovarian
MALME-3M melanoma = system: MALME-3M melanoma
A498 renal = system: A498 renal
OVCAR-3 ovarian = system: OVCAR-3 ovarian
HT29 colon = system: HT29 colon
TK-10 renal = system: TK-10 renal
SF-539 CNS = system: SF-539 CNS
HCT-15 colon = system: HCT-15 colon
HCT-116 colon = system: HCT-116 colon
SK-MEL-28 melanoma = system: SK-MEL-28 melanoma
ACHN renal = system: ACHN renal
CCRF-CEM leukemia = system: CCRF-CEM leukemia
MDA-MB-435 = system: MDA-MB-435
NCI-H23 lung = system: NCI-H23 lung
DU-145 prostate = system: DU-145 prostate
786-0 renal = system: 786-0 renal
K-562 leukemia = system: K-562 leukemia
M14 melanoma = system: M14 melanoma
SK-MEL-2 melanoma = system: SK-MEL-2 melanoma
RPMI-8226 leukemia = system: RPMI-8226 leukemia
SF-268 CNS = system: SF-268 CNS
HCC-2998 colon = system: HCC-2998 colon
SK-OV-3 ovarian = system: SK-OV-3 ovarian
NCI-H522 lung = system: NCI-H522 lung
HOP-92 NSCLC = system: HOP-92 NSCLC
HOP-62 NSCLC = system: HOP-62 NSCLC
A549 NSCLC = system: A549 NSCLC
OVCAR-5 ovarian = system: OVCAR-5 ovarian
MDA-MB-231 breast = system: MDA-MB-231 breast
RXF 393 renal = system: RXF 393 renal
CAKI-1 renal = system: CAKI-1 renal
SNB-19 CNS = system: SNB-19 CNS
NCI-H460 lung = system: NCI-H460 lung
OVCAR-4 ovarian = system: OVCAR-4 ovarian
COLO 205 colon = system: COLO 205 colon
MCF7 breast = system: MCF7 breast
SK-MEL-5 melanoma = system: SK-MEL-5 melanoma
MOLT-4 leukemia = system: MOLT-4 leukemia
OVCAR-8 ovarian = system: OVCAR-8 ovarian
HL-60(TB) leukemia = system: HL-60(TB) leukemia
PC-3 prostate = system: PC-3 prostate
SW-620 colon = system: SW-620 colon
U251 CNS = system: U251 CNS
UACC-62 melanoma = system: UACC-62 melanoma
UO-31 renal = system: UO-31 renal
SNB-75 CNS = system: SNB-75 CNS
EKVX NSCLC = system: EKVX NSCLC
SR leukemia = system: SR leukemia
HS 578T breast = system: HS 578T breast
UACC-257 melanoma = system: UACC-257 melanoma
LOX IMVI melanoma = system: LOX IMVI melanoma
SN12C renal = system: SN12C renal
KM12 colon = system: KM12 colon
SF-295 CNS = system: SF-295 CNS
T-47D breast = system: T-47D breast

## O=C1NC(=S)S/C1=C\c1cn(-c2ccccc2)nc1-c1ccc([N+](=O)[O-])cc1
NCI/ADR-RES ovarian
  GI50: 2.83 µM
  TGI: 12.3 µM
NCI-H226 lung
  GI50: 2.49 µM
  TGI: 12.1 µM
MDA-MB-468 breast
  GI50: 1.9 µM
  TGI: 10.8 µM
BT-549 breast
  GI50: 2.15 µM
  TGI: 6.51 µM
IGROV1 ovarian
  GI50: 3.4 µM
  TGI: 14.8 µM
MALME-3M melanoma
  GI50: 1.96 µM
  TGI: 6.4 µM
A498 renal
  GI50: 2.68 µM
  TGI: 8.93 µM
OVCAR-3 ovarian
  GI50: 2.95 µM
  TGI: 12.4 µM
HT29 colon
  GI50: 3.86 µM
  TGI: 89.5 µM
TK-10 renal
  GI50: 3.81 µM
  TGI: > 100 µM
SF-539 CNS
  GI50: 3.45 µM
  TGI: 13.8 µM
HCT-15 colon
  GI50: 2.1 µM
  TGI: 12.9 µM
HCT-116 colon
  GI50: 2.71 µM
  TGI: 10.9 µM
SK-MEL-28 melanoma
  GI50: 2.68 µM
  TGI: 9.82 µM
ACHN renal
  GI50: 3.04 µM
  TGI: 13.4 µM
CCRF-CEM leukemia
  GI50: 2.33 µM
  TGI: > 100 µM
MDA-MB-435
  GI50: 2.86 µM
  TGI: 11.7 µM
NCI-H23 lung
  GI50: 2.19 µM
  TGI: 8.15 µM
DU-145 prostate
  GI50: 3.63 µM
  TGI: > 100 µM
786-0 renal
  GI50: 3.49 µM
  TGI: 13.5 µM
K-562 leukemia
  GI50: 2.53 µM
  TGI: > 100 µM
M14 melanoma
  GI50: 3.4 µM
  TGI: 14.2 µM
SK-MEL-2 melanoma
  GI50: 2.42 µM
  TGI: 7.46 µM
RPMI-8226 leukemia
  GI50: 2.66 µM
  TGI: > 100 µM
SF-268 CNS
  GI50: 3.01 µM
  TGI: > 100 µM
HCC-2998 colon
  GI50: 2.88 µM
  TGI: 12.6 µM
SK-OV-3 ovarian
  GI50: 3.33 µM
  TGI: 12.9 µM
NCI-H522 lung
  GI50: 2.39 µM
  TGI: 18.7 µM
HOP-92 NSCLC
  GI50: 2.73 µM
  TGI: 8.64 µM
HOP-62 NSCLC
  GI50: 3.45 µM
  TGI: 16.5 µM
A549 NSCLC
  GI50: 3.16 µM
  TGI: 25.3 µM
OVCAR-5 ovarian
  GI50: 5.53 µM
  TGI: 26.7 µM
MDA-MB-231 breast
  GI50: 4.17 µM
  TGI: 16.9 µM
RXF 393 renal
  GI50: 3.2 µM
  TGI: 8.61 µM
CAKI-1 renal
  GI50: 3.04 µM
  TGI: 13.5 µM
SNB-19 CNS
  GI50: 3.46 µM
  TGI: 23.2 µM
NCI-H460 lung
  GI50: 2.05 µM
  TGI: 5.8 µM
OVCAR-4 ovarian
  GI50: 2.6 µM
  TGI: 16.4 µM
COLO 205 colon
  GI50: 3.5 µM
  TGI: 17.6 µM
MCF7 breast
  GI50: 2.74 µM
  TGI: > 100 µM
SK-MEL-5 melanoma
  GI50: 1.34 µM
  TGI: 3.3 µM
MOLT-4 leukemia
  GI50: 2.89 µM
  TGI: > 100 µM
OVCAR-8 ovarian
  GI50: 3.68 µM
  TGI: 23.4 µM
HL-60(TB) leukemia
  GI50: 2.78 µM
  TGI: 21.2 µM
PC-3 prostate
  GI50: 2.71 µM
  TGI: > 100 µM
SW-620 colon
  GI50: 3.27 µM
  TGI: > 100 µM
U251 CNS
  GI50: 2.94 µM
  TGI: 11 µM
UACC-62 melanoma
  GI50: 1.23 µM
  TGI: 3.18 µM
UO-31 renal
  GI50: 2.5 µM
  TGI: 11.9 µM
SNB-75 CNS
  GI50: 1.83 µM
  TGI: 11.5 µM
EKVX NSCLC
  GI50: 2.6 µM
  TGI: 10.4 µM
SR leukemia
  GI50: 4.3 µM
  TGI: > 100 µM
HS 578T breast
  GI50: 2.56 µM
  TGI: 9.27 µM
UACC-257 melanoma
  GI50: 2.43 µM
  TGI: 7.67 µM
LOX IMVI melanoma
  GI50: 3.22 µM
  TGI: 12.8 µM
SN12C renal
  GI50: 2.53 µM
  TGI: 15.2 µM
KM12 colon
  GI50: 3.34 µM
  TGI: 15.4 µM
SF-295 CNS
  GI50: 2.39 µM
  TGI: 11.2 µM

## CN(C)CCOc1ccc(C(=O)C2[C@H](c3ccc(Cl)cc3)[C@@H](c3ccccc3)NC23C(=O)Nc2ccc(Br)cc23)cc1 (some centres not stated)
NCI/ADR-RES ovarian
  GI50: 2.68 µM
  TGI: 5.07 µM
NCI-H226 lung
  GI50: 2.65 µM
  TGI: 5.6 µM
MDA-MB-468 breast
  GI50: 2.4 µM
  TGI: 4.68 µM
T-47D breast
  GI50: 2.33 µM
  TGI: 5.18 µM
BT-549 breast
  GI50: 3 µM
  TGI: 5.82 µM
IGROV1 ovarian
  GI50: 2.51 µM
  TGI: 4.79 µM
MALME-3M melanoma
  GI50: 2.43 µM
  TGI: 4.81 µM
A498 renal
  GI50: 2.53 µM
  TGI: 4.99 µM
OVCAR-3 ovarian
  GI50: 2.24 µM
  TGI: 4.57 µM
HT29 colon
  GI50: 2.47 µM
  TGI: 5.2 µM
TK-10 renal
  GI50: 2.67 µM
  TGI: 5.61 µM
SF-539 CNS
  GI50: 2.64 µM
  TGI: 4.89 µM
HCT-15 colon
  GI50: 2.6 µM
  TGI: 4.95 µM
HCT-116 colon
  GI50: 2.4 µM
  TGI: 4.82 µM
SK-MEL-28 melanoma
  GI50: 2.65 µM
  TGI: 4.88 µM
ACHN renal
  GI50: 2.55 µM
  TGI: 4.77 µM
CCRF-CEM leukemia
  GI50: 3.09 µM
  TGI: 7.86 µM
MDA-MB-435
  GI50: 2.59 µM
  TGI: 4.84 µM
NCI-H23 lung
  GI50: 2.62 µM
  TGI: 5.03 µM
DU-145 prostate
  GI50: 2.7 µM
  TGI: 5 µM
786-0 renal
  GI50: 2.68 µM
  TGI: 4.95 µM
K-562 leukemia
  GI50: 2.73 µM
  TGI: 9.03 µM
M14 melanoma
  GI50: 2.89 µM
  TGI: 5.45 µM
SK-MEL-2 melanoma
  GI50: 2.68 µM
  TGI: 5.16 µM
RPMI-8226 leukemia
  GI50: 3.33 µM
  TGI: 8.37 µM
SF-268 CNS
  GI50: 2.47 µM
  TGI: 5.46 µM
HCC-2998 colon
  GI50: 2.22 µM
  TGI: 4.39 µM
SK-OV-3 ovarian
  GI50: 4.39 µM
  TGI: 16.3 µM
NCI-H522 lung
  GI50: 2.87 µM
  TGI: 5.56 µM
HOP-92 NSCLC
  GI50: 1.74 µM
  TGI: 3.8 µM
HOP-62 NSCLC
  GI50: 2.69 µM
  TGI: 5.56 µM
A549 NSCLC
  GI50: 2.51 µM
  TGI: 4.85 µM
OVCAR-5 ovarian
  GI50: 2.23 µM
  TGI: 4.34 µM
MDA-MB-231 breast
  GI50: 2.41 µM
  TGI: 4.59 µM
RXF 393 renal
  GI50: 1.65 µM
  TGI: 3.61 µM
CAKI-1 renal
  GI50: 2.38 µM
  TGI: 4.54 µM
SNB-19 CNS
  GI50: 2.63 µM
  TGI: 4.94 µM
NCI-H460 lung
  GI50: 2.71 µM
  TGI: 5.22 µM
OVCAR-4 ovarian
  GI50: 2.47 µM
  TGI: 4.91 µM
COLO 205 colon
  GI50: 2.75 µM
  TGI: 5.37 µM
MCF7 breast
  GI50: 2.41 µM
  TGI: 5.05 µM
SK-MEL-5 melanoma
  GI50: 2.52 µM
  TGI: 4.71 µM
MOLT-4 leukemia
  GI50: 2.58 µM
  TGI: 6.53 µM
OVCAR-8 ovarian
  GI50: 2.58 µM
  TGI: 5.01 µM
HL-60(TB) leukemia
  GI50: 2.89 µM
  TGI: 6.75 µM
PC-3 prostate
  GI50: 2.48 µM
  TGI: 4.94 µM
SW-620 colon
  GI50: 2.63 µM
  TGI: 5.17 µM
U251 CNS
  GI50: 2.59 µM
  TGI: 4.96 µM
UACC-62 melanoma
  GI50: 2.5 µM
  TGI: 4.74 µM
UO-31 renal
  GI50: 2.3 µM
  TGI: 4.63 µM
SNB-75 CNS
  GI50: 1.7 µM
  TGI: 5.81 µM
EKVX NSCLC
  GI50: 2.24 µM
  TGI: 4.4 µM
HS 578T breast
  GI50: 2.18 µM
  TGI: 6.88 µM
UACC-257 melanoma
  GI50: 2.53 µM
  TGI: 4.94 µM
LOX IMVI melanoma
  GI50: 2.42 µM
  TGI: 4.61 µM
SN12C renal
  GI50: 2.35 µM
  TGI: 4.55 µM
KM12 colon
  GI50: 2.8 µM
  TGI: 5.46 µM
SF-295 CNS
  GI50: 2.48 µM
  TGI: 4.68 µM
